The test system of test [1] is POMC neurons. As to the kind of experiment: Action potential frequency / firing rate of POMC neurons (whole cell and loose cell-attached). The class given is cell-based, mouse. As to conditions: for POMC neuron firing rate (frequency of action potentials): fenfluramine 20 μM, loose-cell-attached, n=3.
Test [2] concerns POMC neurons. As to the kind of experiment: Whole cell recordings of membrane potential of EGFP-labeled POMC neurons in arcuate (ARC) slices. Type of test: cell-based, mouse.
Test [3] concerns POMC neurons. Briefly: GABAergic IPSCs recorded in POMC neurons of ARC slices. The class given is cell-based, mouse.
The test system of a further test is hypothalamic explants. As to conditions: hypothalamic explants (Batterham et al.); cited from earlier work.
For test [4], the system named is non-POMC neurons in the arcuate nucleus. Briefly: Membrane potential of non-fluorescent (non-POMC) neurons in the arcuate nucleus. Type of test: cell-based, mouse. As to conditions: 13 cells tested; also hyperpolarized 5 and depolarized 3.
The test system of test [5] is POMC neurons. As to the kind of experiment: I-V relationships of drug-induced currents in POMC neurons. The class given is cell-based, mouse. As to conditions: leptin 100 nM, slow voltage ramps.

The source of these data is US7919329B2, “Method for screening for agents that affect food intake” (Oregon Health & Science University, priority 2001, dated 2011).

Where two headings read alike, the source gives them in different places. No end group written: not given here.

`CCNC(C)Cc1cccc(C(F)(F)F)c1` (stereo not drawn) [Fenfluramine, fenfluramine]: the “POMC neuron firing rate (frequency of action potentials)” value is listed as “two fold increase” in the test on POMC neurons [1] and “doubling” in the test with POMC neurons [1] (listed as d-FEN). Further, in the test with POMC neurons [2], the “resting membrane potential of POMC neurons (depolarization)” value (“resting membrane potential” below) is recorded as “depolarized POMC neurons”.
Consider `Clc1cncc(N2CCNCC2)n1` [MK 212, 6-Chloro-2-(1-piperazinyl)pyrazine], for which the “resting membrane potential” value with POMC neurons [2] is “depolarized POMC neurons”.
As for `NC1=N[C@H](O)[C@H]2[C@H]3O[C@]4(O)O[C@@H]([C@@H](O)[C@@]2(N1)[C@@H]4O)[C@]3(O)CO` [TTX, tetrodotoxin], the “large amplitude IPSCs” value in the test on POMC neurons [3] is “abolished large IPSCs”.
As for `Clc1cccc(N2CCNCC2)c1` [mCPP, 1-(3-Chlorophenyl)piperazine], the “resting membrane potential” value in the test on POMC neurons [2] is reported as “depolarized POMC neurons”.
For `NCCc1c[nH]c2ccc(O)cc12` [serotonin], in the test on POMC neurons [2] (serotonin receptor agonists bath-applied four minutes, whole cell, n=4-8 per dose), the “resting membrane potential” value is on record as “increased the resting membrane potential (depolarized)”.
With D-Trp^8-γMSH, the “increase of frequency of GABAergic IPSCs” value in the test on POMC neurons [3] (D-Trp8-γMSH 7 nM, 3 of 4 POMC neurons) is recorded as 280±90%. In the test on POMC neurons [1] (D-Trp8-γMSH 7 nM), the “frequency of action potentials” value is on record as “decreased the frequency of action potentials”.
Take “N-acetyl (Leu^28, Leu^31) NPY (24-36) (Ac-LRHYLNLLTRQRY; ends and bridges not checked) [Y2A]”: in the test with POMC neurons [3] (PYY3-36 (50 nM, FIG. 6c) n=13, Y2A n=8), the “reduction of frequency of IPSCs onto POMC neurons” value was 44.4±9.3%. For the same molecule, in the test on POMC neurons [2] (whole cell, PYY3-36 (10 nM, FIG. 6a) n=22, 19 of 22 depolarized, Y2A n=9), the “depolarization of POMC neurons” value is listed as 8.7±1.8 mV. In the test on hypothalamic explants, the A-MSH release result is reported as “concomitant increase in A-MSH release” and the NPY release entry is recorded as “significantly decreased NPY release”.
For the molecule “ghrelin: agent known to increase feeding, caloric intake, and appetite, and decrease energy expenditure (GSSFLSPEHQRVQQRKESKKPPAKLQPR; ends and bridges not checked; UniProt Q9UBU3 24-51, looked up)”, the “frequency of IPSCs in POMC neurons” value with POMC neurons [3] (ghrelin 50 nM) is “increase in the frequency of IPSCs”. In addition, the “decrease of action potential firing rate of POMC neurons” value in the test on POMC neurons [1] (ghrelin 50 nM, loose cell attached mode) is on record as 50%. Moreover, the “hyperpolarization of POMC neurons, mean” value with POMC neurons [2] (ghrelin 50 nM, three minutes, whole cell) amounted to 1.47±0.7 mV.
On to leptin: adipostatic hormone, for which the “effect on adjacent non-fluorescent ARC cells” value in test [4] is on record as “no effect on 5 of 13 adjacent non-fluorescent cells tested”. Further, the “inhibition of IPSCs in the presence of tetrodotoxin (TTX)” value in the test with POMC neurons [3] is reported as “still inhibited IPSCs”. For the same molecule, the “decrease of frequency of GABAergic IPSCs” value in the test with POMC neurons [3] (100 nM, leptin in 5 out of 15 cells, NPY in all 12 POMC cells tested) turned out to be 25%. For the same molecule, in the test on POMC neurons [5], the “reversal of small inward current” value is on record as “approximately −20 mV”. In addition, the “time to depolarization after addition” value with POMC neurons [2] (leptin 0.1-100 nM) was 2 to 10 min. Further, in the test on POMC neurons [2] (leptin 0.1-100 nM, 72 of 77 POMC cells), the “depolarization of POMC cells” value is 3-30 mV.
On to met-enkephalin (YGGFM), for which, in the test with POMC neurons [1], the “spontaneous action potential generation” value was “prevented spontaneous action potential generation”.
Turning to neuropeptide Y [NPY], in the test on POMC neurons [3], the “inhibition of IPSCs in the presence of tetrodotoxin (TTX)” value is given as “still inhibited IPSCs”. Besides, in the test with POMC neurons [3] (NPY 100 nM), the “time to decrease of IPSC frequency” value is no more than 3 min. Further, the “hyperpolarization of POMC neurons (average)” value in the test on POMC neurons [2] (NPY, n=3, all POMC neurons tested) was determined as 9±6 mV.
Turning to picrotoxin, in the test on POMC neurons [3], the IPSCs result was “blocked all IPSCs”.
